# Data: paper PMC6670186, “Novel prodrugs of decitabine with greater metabolic stability and less toxicity” (Clinical Epigenetics, 2019)
# “Also recorded” adds a separate entry of the source. Where two headings read alike, the source gives them in different places. Marks after values point to notes of the source that are not given here.
# How the values were obtained:
# [1] = Partition coefficient (log P), shake-flask method, n-octanol/PBS; assay type: physicochemical
# Description: The method employed HPLC with the following conditions: ZORBAX Bonus C18 column (4.6 × 150 mm, 3 μm); eluent: A = 10 mM HCO2NH4, B = acetonitrile, A:B = 50:50 (an isocratic mode for 5 min), and A:B = 99:1–20:80 (a gradient mode for 15 min); flow rate = 1.0 mL/min; oven temperature = 40 °C; detection = 240 nm.
# [2] = Stability in phosphate-buffered saline; assay type: physicochemical; conditions: for Stability t1/2 in PBS: PBS 37 °C, 20** + x h, 20 h = t1/2 in PBS of DAC, x = OR compound; for t1/2 in PBS: PBS solution at 37°C
# Description: Five microliters of DAC derivatives (1.0 mg/100 μL of DMSO) was added to 200 μL of a stirred PBS solution at 37 °C. The mixture was stirred continuously for 1 day. The remaining of the starting derivatives was assayed using the HPLC analytical conditions as described above.
# [3] = Pharmacokinetics in mice, intraperitoneal; assay type: in vivo; conditions: for AUC 0 → lim, Total: OR compound + metabolite DAC; for AUC 0 → lim, OR compound: dose equimolar to 0.20 mg/kg DAC
# Description: Six-week-old female ICR mice were intraperitoneally injected with 0.20 mg/kg of DAC, 0.29 mg/kg of OR-2003, 0.32 mg/kg of OR-2009, 0.30 mg/kg of OR-2100, and 0.31 mg/kg of OR-2102. The doses were decided so that equivalent amounts of molar concentration would be administered. The blood plasma was collected before and at 5, 15, 30, 45, 60, 90, and 120 min after the treatment. All experimental procedures were approved by the Committee of National Cancer Center.
# [4] = test system: HML58-3 cells; test: Luciferase reporter assay for DNA demethylation; assay type: cell-based, Human; conditions: 0.1 and 1.0 μM for 1 h, analyzed on day 5
# Description: Cells were seeded at a density of 5 × 10^3 cells/well in a 96-well microplate on day 0 in triplicate, and 5 × 10^4 cells/well in a six-well plate on day 0. On day 1, the medium was replaced with a medium containing a specific concentration of a drug, which was freshly dissolved in DMSO and filtered through a 0.2-μ filter. On day 5, the supernatant from each well of the 96-well microplate was collected to measure luminescence. Luminescence was measured using the Ready-To-Glow^TM Secreted Luciferase Reporter Assay (Clontech; Mountain View, CA) and a multimode plate reader ARVO^TMMX (PerkinElmer Japan Co Ltd.; Kanagawa, Japan).
# [5] = test system: exogenous UCHL1 promoter and OSR2 promoter CpG island; test: Quantitative methylation-specific PCR of marker genes; assay type: cell-based, Human; conditions: qMSP; for DNA demethylation after pulse exposure: HML58-3 cells, 1.0 μM for 1 h; for DNA demethylation of exogenous UCHL1 promoter and OSR2 promoter CpG island: 0.0 to 10.0 μM
# Description: One microgram of EcoRV-digested genomic DNA was treated with sodium bisulfite as described previously. Bisulfite-treated DNA was resuspended in 40 μL of TE-buffer (10 mM Tris, pH 8.0; 1 mM EDTA, pH 8.0), and 1 μL was used for quantitative methylation-specific PCR (qMSP) using primers specific to methylated and unmethylated target loci, including MetLuc-UCHL1 promoter, OSR2 promoter, and UCHL1 promoter (Additional file 1: Table S1). As a fully unmethylated DNA control, genomic DNA from peripheral blood cells of a healthy person was amplified twice using a GenomiPhi DNA amplification kit (GE Healthcare Life Sciences; Little Chalfont, UK). As a fully methylated DNA control, the fully unmethylated DNA was methylated by SssI methylase (New England Biolabs; Beverly, MA).
# [6] = test system: HML58-3 cells; test: Genome-wide DNA methylation analysis (Infinium MethylationEPIC); assay type: cell-based, Human; conditions: 1 μM
# Description: Genome-wide DNA methylation analysis was performed using an Infinium Human MethylationEPIC BeadChip (Infinium EPIC; Illumina; Sam Diego, CA) as described previously. The BeadArray assessed the degree of methylation of 862,927 CpG probes as beta-values that ranged from 0 (unmethylated) to 1 (fully methylated). To reduce the data size and obtain data that were easy to handle, the CpG probes were grouped into 548,546 genomic blocks (GBs), which consisted of probes within 500 bp.
# [7] = test system: RKO cells; test: Cell growth inhibition, RKO; assay type: cell-based, Human
# Description: (§1) Cells were seeded at a density of 1 × 10^3 to 5 × 10^3 cells/well in a 96-well microplate or 1 × 10^4 to 5 × 10^4 cells/well in a six-well microplate on day 0 in triplicate, followed by treatment with drugs on day 1. The cell growth of HCT116 was estimated using IncuCyte (Essen BioScience, K.K.; Tokyo, Japan) for 94 h. The cell viability of SW480, HT29, and TMK1 was evaluated using a WST-8 [2-(2-methoxy-4-nitrophenyl)-3-(4-nitrophenyl)-5-(2, 4-disulfophenyl)-2H tetrazolium, monosodium salt] assay (Nacalai Tesque Inc., Kyoto, Japan). The numbers of cells of RKO, breast cancer cell lines, sarcoma cell lines, and neuroblastoma cell lines were counted using a microscope. The half-maximum inhibitory concentration (IC50) was obtained using the non-linear regression analysis of log (inhibitor) versus the normalized response with a variable slope using the GraphPad Prism software (GraphPad Software; La Jolla, CA).
# [8] = test system: TMK1 cells; test: Cell viability (WST-8), TMK1; assay type: cell-based
# Description: as §1
# [9] = test system: HCT116 cells; test: Cell growth inhibition, HCT116; assay type: cell-based, Human
# Description: as §1
# [10] = test system: HML58-3; test: Expression microarray; assay type: cell-based, Human; conditions: 1 μM, 58,341 probes
# Description: Cy3-labeled cRNA was synthesized from 100 ng of total RNA using a Low Input Quick Amp Labeling Kit, One-Color (Agilent Technologies, Santa Clara, CA), and 600 ng of labeled cRNA was fragmented and hybridized to SurePrint G3 Human Gene Expression 8 x 60K v3 Microarray (Agilent Technologies). The hybridized microarray was scanned with an Agilent G2600D microarray scanner (Agilent Technologies). The scanned data were processed using Feature Extraction software (Agilent Technologies) and analyzed using GeneSpring software (Agilent Technologies). The 75th percentile of the signal intensity of all probes was normalized to be 0, and the genes with signal intensities of − 1 or more were regarded as showing positive expression.
# [11] = test system: HCT116 xenografts; test: Xenograft tumor formation assay in nude mice; assay type: in vivo; conditions: for DNA demethylation of two promoters in xenograft tumors: group 2 mice; for tumor growth (tumor volume): intraperitoneal, twice per week
# Description: (§2) HCT116 cells (5.0 × 10^6 cells per mouse) were subcutaneously injected into the inguinal region of 6-week-old female nude mice (n = 81) (BALB/c-nu/nu; CLEA Japan, Tokyo, Japan). Once tumors reached an average volume of 80 mm^3, mice bearing xenograft tumors were randomly divided into nine groups and treated intraperitoneally with vehicle (5% DMSO in 10% 2-hydroxypropyl-β-cyclodextrin solution), DAC, OR-2003, or OR-2100. The length and width of tumors were measured with standard calipers twice per week, and tumor volumes were calculated using the formula tumor volume = (length × width^2) × 0.5. Body weight was measured twice per week. […] The remaining mice were categorized as group 1 and continuously treated with drugs. At 29 days after the treatment, tumors, major organs, bone marrow, and blood serum were collected from six mice and blood count and biochemical tests were performed. The mice were maintained under standard conditions according to the institutional guidelines for animal care.
# [12] = Adverse effects in xenograft-bearing nude mice (body weight, blood count, biochemical tests); assay type: in vivo; conditions: for WBC count and liver function: doses equimolar to that of DAC
# Description: as §2
# [13] = biological target: T1, human recombinant cytidine deaminase (Homo sapiens, UniProt P32320); test: Stability in the presence of cytidine deaminase; assay type: in vitro ADME
# T1 construct: His; purchased AT Gen Co. Ltd; Seoul, Korea
# T1 sequence (P32320 whole entry): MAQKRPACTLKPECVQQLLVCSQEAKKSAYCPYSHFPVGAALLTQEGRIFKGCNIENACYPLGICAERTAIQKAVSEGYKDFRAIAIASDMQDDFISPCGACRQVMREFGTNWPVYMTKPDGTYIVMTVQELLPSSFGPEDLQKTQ
# From the text: The remaining of the starting derivatives were continuously assayed using HPLC analytical conditions as described above.
# [14] = test system: SFRP1 and UCHL1; test: RT-qPCR of tumor-suppressor genes after pulse exposure; assay type: cell-based, Human; conditions: HML58-3 cells, 1.0 μM for 1 h
# Description: Complementary DNA (cDNA) was synthesized from DNase-treated total RNA (1 μg) using oligo-(dT) 20 (Thermo Fisher Scientific; Waltham, MA) and SuperScript IV Reverse Transcriptase (Thermo Fisher Scientific). The number of cDNA molecules was quantified using qRT-PCR. The primer sequences and PCR conditions are shown in Additional file 1: Table S1. The copy number of each sample was calculated by comparing the amplification curve with those of standard DNA samples with known copy number. The number of target cDNA molecules was normalized to that of GAPDH cDNA molecules.
# [15] = test system: DNMT1; test: DNMT1 western blot; assay type: cell-based, Human; conditions: HML58-3 cells
# Description: Cells were seeded at a density of 3 × 10^5 cells/10-cm dish and treated with appropriate drug(s) 24 h after the initial seeding. On day 5, the cells were lysed in RIPA buffer (20 mM Tris-HCl, pH 7.6; 150 mM NaCl; 1 mM EDTA; 0.1% SDS; and 1% NP-40) containing 3 mM dithiothreitol, proteinase inhibitor cocktail (Nacalai Tesque; Kyoto, Japan). Proteins were resolved by SDS-PAGE and transferred to an Immobilon-P […] membrane (Merck Millipore; Billerica, MA). After blocking, each membrane was incubated with rabbit anti-DNMT1 antibody (Abcam, 1:1000) or mouse anti-PARP antibody (BD, 1:1000). Following three cycles of 10-min washes with PBS supplemented with 0.5% Tween 20 (PBS-T), blots were incubated with secondary antibodies (rabbit IgG, 1:1000; mouse IgG, 1:10000) and rewashed. Chemiluminescence was detected using an ECL kit (Biological Industries).
# [16] = design: method as in Yoo C.B. et al. Cancer Research 2007; 67:6400–6408; conditions: ref Yoo C.B. et al. Cancer Research 2007, 67:6400–6408; cited from earlier work
# [17] = plasma, DAC (metabolite for OR compounds), equimolar dose
Log PO/PBS [1],half-life (time to release DAC) [2] [h],Stability t1/2 in PBS [2],t1/2 in PBS [2] [h],total AUC of OR compound and metabolite DAC compared with DAC [3],"AUC 0 → lim, DAC [3, 17] [µM·h]","AUC 0 → lim, Total ([3]; plasma) [µM·h]","AUC 0 → lim, OR compound ([3]; plasma) [µM·h]",IC50 [9] [nM],SMILES,DNA demethylation after pulse exposure [5],DNA demethylation of exogenous UCHL1 promoter and OSR2 promoter CpG island [5],genome-wide DNA demethylation [6],IC50 [7] [nM],IC50 [8] [nM],number of genes upregulated more than twofold and to − 1.0 log2 value [10],DNA demethylation of two promoters in xenograft tumors [11],tumor growth (tumor volume) [11],WBC count and liver function [12],further results
2.14,≥ 14,20** + 16 h,16,larger AUCs than that of DAC,0.266,0.434,0.168,1110,CC[Si](CC)(CC)OC[C@H]1O[C@@H](n2cnc(N)nc2=O)C[C@@H]1O [OR-2100],stronger demethylation,slightly lower demethylation,as strong DNA demethylation as DAC,60,1410,2041,significant demethylation,significant and dose-dependent inhibition of tumor growth,no influence,luciferase activity after pulse exposure [4]: weaker than that of DAC; adverse effects ([12]; high dose): no adverse effects
1.64,1,20** + 1 h,1.0,larger AUCs than that of DAC,0.338,0.643,0.305,910,CCC[Si](C)(C)OC[C@H]1O[C@@H](n2cnc(N)nc2=O)C[C@@H]1O [OR-2003],stronger demethylation,as strongly as DAC,as strong DNA demethylation as DAC,40,2840,2060,significant demethylation,significant and dose-dependent inhibition of tumor growth,no influence,enzymatic stability in the presence of CDA [13]: stable in the presence of CDA; Cmax ([3]; comparison among four OR compounds): highest Cmax; expression level of SFRP1 and UCHL1 after pulse exposure [14]: twice as high as that induced by DAC; tumor growth inhibition ([11]; highest dose 3.600 mg/kg): strongest effect; WBC count ([12]; highest dose 3.600 mg/kg): affected the WBC count
,,,,,,,,,"Nc1ncn([C@H]2C[C@H](O)[C@@H](CO)O2)c(=O)n1 [DAC, 2′-deoxy-5-azacytidine, reference compound]",,,,,,2011,,suppressed the xenograft growth,,"Enzymatic stability ([13]; cytidine deaminase, after 0.5 h): completely degraded; also recorded: Complete degradation after 0.5 h; AUC ([3]; female, ICR, mouse, ip, 0.2 mg/kg, plasma, DAC (metabolite for OR compounds), equimolar dose, read-out: AUC 0 → lim, DAC): 0.378 µM·h; DNMT1 protein level [15]: depleted at 3 and 10 μM; dose with strongest effect of DNA demethylation [5]: 1.0 µM; IC50 ([7]; Homo sapiens): 0.2 nM; IC50 ([8]; Homo sapiens, TMK-1): 5830 nM; IC50 ([9]; Homo sapiens, HCT-116): 850 nM; body weight ([12]; 7.50 and 3.75 mg/kg, initial experiment): severe body weight loss; WBC count and liver function (AST, ALT) ([12]; even at a lower dose (0.625 and 1.250 mg/kg)): affected; Stability t1/2 in PBS [16]: 20 h"
